Here are results for eight molecules from patent US7098336B2, “FXR NR1H4 nuclear receptor binding compounds” (Phenex Pharmaceuticals AG, priority 2001, dated 2006).

Assay [1] addresses T1, human FXR alpha (NR1H4) (Homo sapiens, UniProt Q96RI1).
T1 sequence (Q96RI1 1-472 isoform Q96RI1-2): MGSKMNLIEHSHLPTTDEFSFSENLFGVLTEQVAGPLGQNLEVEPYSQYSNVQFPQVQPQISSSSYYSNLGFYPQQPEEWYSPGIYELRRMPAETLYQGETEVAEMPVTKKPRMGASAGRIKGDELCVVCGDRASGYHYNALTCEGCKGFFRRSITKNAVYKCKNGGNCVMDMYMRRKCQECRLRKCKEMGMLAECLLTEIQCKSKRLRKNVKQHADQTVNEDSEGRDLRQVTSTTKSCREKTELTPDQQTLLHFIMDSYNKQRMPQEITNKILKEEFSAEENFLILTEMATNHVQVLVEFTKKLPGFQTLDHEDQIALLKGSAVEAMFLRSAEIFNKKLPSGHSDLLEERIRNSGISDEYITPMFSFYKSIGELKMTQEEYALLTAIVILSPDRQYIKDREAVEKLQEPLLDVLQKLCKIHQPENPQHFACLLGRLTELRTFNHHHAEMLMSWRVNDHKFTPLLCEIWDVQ
Kind of assay: In vitro LANCE TR-FRET screening for FXR binding to coactivator TIF2. In kind it is biochemical. From the text: For screening purposes a fragment of the open reading frame of human FXR alpha (NR1H4-(Acc. No: AF384555)) encoding aminoacids 187–472 was amplified by standard RT PCR procedures (see figures; SEQ ID NO. 1 and 2). Starting material was total RNA derived from human liver. The resulting cDNA obtained after reverse transcription was subsequently cloned using the Gateway™ recombination technology (Invitrogen, USA) into the expression plasmid pDest15 (Invitrogen, USA). This construct was used to express a recombinant GST-FXR fusion protein in E. coli (BL21 strain). A pDEST 17 derivative clone harboring an additional sequence encoding amino acids 548–878 of human TIF2 (Acc. No: XM—011633 RefSeq) was constructed using Gateway™ recombination technology (Invitrogen, USA) in order to obtain a construct which was used to express recombinant His-tagged TIF2 fragment could be expressed in E. coli. […]
For screening of compound libraries as provided for by the methods shown below in the examples for substances which influence the FXR/Tif 2 interaction, the Perkin Elmer LANCE technology was applied. […] For ease of handling and reduction of background from compound fluorescence LANCE technology makes use of generic fluorophore labels and time resoved detection (for detailed description see Hemmilä I, Blomberg K and Hurskainen P, Time-resolved resonance energy transfer (TR-FRET) principle in LANCE, Abstract of Papers Presented at the 3 rd Annual Conference of the Society for Biomolecular Screening, September, California (1997). […]
The LANCE signal was detected by a Perkin Elmer VICTOR2V™ Multilabel Counter applying the detection parameters listed in Table 1 below. […] For every batch of recombinant proteins amount of proteins and labeling reagents giving the most sensitive detection of hits was determined individually by analysis of dose response curves for chenodeoxycholic acid.

The target of assay [2] is T1, human FXR alpha (NR1H4). The assay is described as above. It counts as biochemical. On the set-up: EC50 AVG; other: relative to CDCA control agonist; fused on or other part: GST at the N-terminus (pDest15). The following applies: for Emax: read-out: EFFIC AVG (average efficacy, % activity relative to CDCA control agonist). An excerpt:
For screening purposes a fragment of the open reading frame of human FXR alpha (NR1H4-(Acc. No: AF384555)) encoding aminoacids 187–472 was amplified by standard RT PCR procedures (see figures; SEQ ID NO. 1 and 2). Starting material was total RNA derived from human liver. The resulting cDNA obtained after reverse transcription was subsequently cloned using the Gateway™ recombination technology (Invitrogen, USA) into the expression plasmid pDest15 (Invitrogen, USA). This construct was used to express a recombinant GST-FXR fusion protein in E. coli (BL21 strain). A pDEST 17 derivative clone harboring an additional sequence encoding amino acids 548–878 of human TIF2 (Acc. No: XM—011633 RefSeq) was constructed using Gateway™ recombination technology (Invitrogen, USA) in order to obtain a construct which was used to express recombinant His-tagged TIF2 fragment could be expressed in E. coli. For E. coli expression of both constructs, plasmid DNA was transformed into chemically competent E. coli BL21 (Invitrogen, USA) and cells were grown to an OD600 of 0.4–0.7 before expression was induced by addition of 0.5 mM IPTG according instructions of the manufacturer (Invitrogen). After induction for 8 hours at 30° C. cells were harvested by centrifugation for 10 minutes at 5000×g. Fusion proteins were affinity purified using Glutathion sepharose (Pharmacia) or Ni-NTA Agarose (QIAGEN) according to the instructions of the respective manufacturer. Recombinant proteins were dialyzed against 20 mM Tris/HCL pH 7.9; 60 mM KCl; 5 mM MgCl2; 1 mM DTT, 0.2 mM PMSF; 10% glycerol. The TIF2 fragment was subsequently biotinylated by addition of 40–120 μl of a Biotinamidocaproate N-Hydroxysuccinimide-ester (Sigma) solution (20 mg/ml in DMSO). Overhead rotating samples were incubated for 2 hours at room temperature. Unincorporated label was then separated using G25 Gel filtration chromatography (Pharmacia Biotech, Sweden). Protein containing fractions from the column were pooled and tested for activity in the assay as described below.
For screening of compound libraries as provided for by the methods shown below in the examples for substances which influence the FXR/Tif 2 interaction, the Perkin Elmer LANCE technology was applied. This method relies on the binding dependent energy transfer from a donor to an acceptor fluorophore attached to the binding partners of interest. For ease of handling and reduction of background from compound fluorescence LANCE technology makes use of generic fluorophore labels and time resoved detection (for detailed description see Hemmilä I, Blomberg K and Hurskainen P, Time-resolved resonance energy transfer (TR-FRET) principle in LANCE, Abstract of Papers Presented at the 3 rd Annual Conference of the Society for Biomolecular Screening, September, California (1997).
For screening, 20–200 ng of biotinylated Tif 2 fragment and 10–200 ng of GST-FXR fragment were combined with 0.5–2 nM LANCE Eu-(W1024) labelled anti-GST antibody (Perkin Elmer) and 0.5–2 μg of Highly fluorescent APC-labelled streptavidin (Perkin Elmer) in the presence of 50 μM of individual compounds to be screened in a total volume of 25 μl of 20 mM Tris/HCl pH 7.9; 60 mM KCl; 5 mM MgCl2; 160 ng/μl BSA. DMSO content of the samples was kept below 4%. Samples were incubated for a minimum of 60 minutes in the dark at room temperature in FIA-Plates black 384 well med. binding (Greiner).
The LANCE signal was detected by a Perkin Elmer VICTOR2V™ Multilabel Counter applying the detection parameters listed in Table 1 below. The results were visualized by plotting the ratio between the emitted light at 665 nm and at 615 nm. For every batch of recombinant proteins amount of proteins and labeling reagents giving the most sensitive detection of hits was determined individually by analysis of dose response curves for chenodeoxycholic acid.

For assay [3], the target named is T2, full length human FXR (Homo sapiens, UniProt Q96RI1).
T2 construct: expressed in transfected cells; host or cells: HEK293, stably transfected with pTRexDest30-hFXR, pTRexDest30-hRXR and pGL2promoter-FXRRE
T2 sequence (Q96RI1 1-472 isoform Q96RI1-2): T1 sequence (Q96RI1 1-472 isoform Q96RI1-2)
T2 sequence (P19793 1-462 partner): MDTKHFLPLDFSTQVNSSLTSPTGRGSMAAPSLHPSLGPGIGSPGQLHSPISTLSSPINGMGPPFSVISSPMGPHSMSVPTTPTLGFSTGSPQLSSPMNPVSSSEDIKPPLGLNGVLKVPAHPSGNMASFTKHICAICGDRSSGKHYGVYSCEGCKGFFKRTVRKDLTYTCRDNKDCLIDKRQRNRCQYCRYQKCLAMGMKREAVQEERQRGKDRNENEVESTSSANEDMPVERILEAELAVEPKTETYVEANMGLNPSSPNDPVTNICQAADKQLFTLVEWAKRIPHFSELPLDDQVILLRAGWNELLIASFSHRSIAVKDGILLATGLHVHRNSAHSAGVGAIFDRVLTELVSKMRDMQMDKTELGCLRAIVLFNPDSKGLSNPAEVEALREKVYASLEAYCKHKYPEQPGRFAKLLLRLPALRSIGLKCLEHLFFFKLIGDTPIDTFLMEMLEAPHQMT
Kind of assay: Cellular gene reporter assay in stable HEK293-FXR reporter cell line (luciferase). The settings on record: HEK293-FXR reporter cells, 16 hours incubation, FIG. 3. It counts as cell-based. From the text:
This example illustrates that a compound according to the invention can mediate transactivation of FXR mediated transcription in a HEK293 reporter cell line. Experiments shown were done with MOLSTRUCTURE LN 6691 (see structural formula below).
Stable HEK293-FXR reporter cell lines were generated by stably transfecting with the pTRexDest30 (Invitrogen) derivatives pTRexDest30-hFXR, pTRexDest30-hRXR and the pGL2promoter (Promega) derivative pGL2promoter-FXRRE. The full length human FXR (accession U68233) and the full length human RXRα (accession P19793) were cloned into the pTRexDest30 applying the manufacturer protocols for the Gateway™ system (Invitrogen).
The FXR response elements were (upper case and underlined) 5′-cccaGGGTGAaTAACCTcggggctctgtccctccaatcccaGGGTGAaTAACCTcggg 3′ (SEQ ID NO. 5) was created from the human IBAB-P promoter (Grober et al 1999, JBC 274, pp. 29749–29754) and integrated into the reporter plasmid pGL2promoter (Promega) according to standard methods known to those skilled in the art. […] Luciferase reporter activity were determined in triplicates from extracts of cells after incubating cells in culture medium (DMEM [Gibco-BRL]+10% FCS [PAA laboratories]) for 16 hours (5% CO2, 37° C.) containing 0.5% DMSO (control) or 0.5% DMSO with increasing concentrations of LN6691 (FIG. 3).
(Reporter assays use an easily measured gene product as a stand-in for the process of interest.)

Where [4] appears, read: established according to Example 1 (FRET), unit inferred, b76 prints 0.16 μM for the same value, read-out: EC50 AVG.

Like-named read-outs stand apart in the source and are kept apart here.

For the molecule `COc1ccccc1-c1cc(-c2cc(C)ccc2O)nc(NC[C@H]2CC[C@H](C(=O)O)CC2)n1` [formula (6)], the “active as agonists of the NR1H4 human nuclear receptor” value (from here on “active”) in assay [1] is “active as agonists”. Turning to `O=C(O)C1CCC(CNc2nc(-c3ccccc3O)cc(-c3ccccc3F)n2)CC1` (stereo not shown) [LN0000007265], the EC50 in assay [2] (setting [4]) stood at 530 nM. In assay [2], the Emax was determined as 91%. For the molecule `O=C(O)C1CCC(CNc2nc(-c3ccccc3O)cc(-c3ccccc3F)n2)CC1` (stereo not shown) [formula (5)], in assay [1], the “active” value is “active as agonists”.

On to `O=C(O)[C@H]1CC[C@H](CNc2nc(-c3cccs3)cc(-c3ccccc3O)n2)CC1` [formula (7)], for which the “active” value in assay [1] was “active as agonists”. As to `COc1ccccc1-c1cc(-c2ccccc2O)nc(NCC2CCC(C(=O)O)CC2)n1` (stereo not shown) [LN0000006691], the “relative efficacy compared to GW4064 as control compound” value in assay [3] is recorded as “about 110%”. For the same molecule, the EC50 in assay [2] (read-out: EC50 at FXR (half-maximal effective concentration)) was found to be 160 nM. Also, the Emax in assay [2] amounted to 125%. Consider `COc1ccccc1-c1cc(-c2ccccc2O)nc(NC[C@H]2CC[C@H](C(=O)O)CC2)n1` [LN0000006691], for which the EC50 in assay [3] was found to be 1300 nM. On to `COc1ccccc1-c1cc(-c2cc(C)ccc2O)nc(NCC2CCC(C(=O)O)CC2)n1` (stereo not shown) [LN0000002683], for which the EC50 in assay [2] (setting [4]) worked out at 1090 nM. For the same molecule, the Emax in assay [2] is 134%. The like results for `O=C(O)C1CCC(CNc2nc(-c3cccs3)cc(-c3ccccc3O)n2)CC1` (stereo not shown) [LN0000006692] were, in that order, 1660 nM and 111%.
